Columns and labels:
Assay type in all cases: in vivo
[1] = test system: Echinochloa crus-galli var. crus-galli; assay: Test Example 4: herbicidal effect by soil treatment (symbol H)
Method in brief: (§1)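 Seeds were sown in sterilized diluvial soil, covered with about 1.5 cm of soil, and the soil surface was sprayed with a water-diluted emulsion of the compound at a predetermined rate. Plants grew in a greenhouse at 25° C. to 30° C.; effects were scored visually 3 weeks after application.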

rapeseed [2] = assay: Test Example 4: effect on crop by soil treatment (symbol g); details: for g: rapeseed, effect grade on crop: 320 g/ha
Method in brief: (§2)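 Plants are raised in a greenhouse (25° C. to 30° C.) from spot-sown seed, which sits under about 1.5 cm of sterilized diluvial soil in a box shared with weed species.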

Digitaria ciliaris [3] = assay: Test Example 4: herbicidal effect by soil treatment (symbol F)
Method in brief: as §1

Avena fatua [4] = assay: Test Example 5: herbicidal effect by foliage application, plastic box (symbol I); details: 320 g/ha, 3 weeks after application
Method in brief: (§3)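 Post-emergence spray; diluvial soil (sterilized), ~1.5 cm seed cover; greenhouse 25–30° C; 14-day-old plants; water-diluted emulsion at predetermined dose; visual score at 3 wk post-treatment.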

Stellaria media = assay: Test Example 5: herbicidal effect by foliage application, plastic box (symbol P); details: 320 g/ha, 3 weeks after application
Method in brief: as §3

Avena fatua [5] = assay: Test Example 4: herbicidal effect by soil treatment (symbol I)
Method in brief: as §1

Chenopodium album [6] = assay: Test Example 4: herbicidal effect by soil treatment (symbol O)
Method in brief: as §1

[7] = test system: directly sowed rice plant; assay: Test Example 3: effect on crop by foliage application, Wagner pot (symbol b); details: application herbicide amount 320 g/ha; for b (directly sowed rice plant) effect on crop grade: Table 24
Method in brief: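 Wagner pot (1/10000 are), alluvial soil, submerged 0.1–0.5 cm; sown E. crus-galli var. crus-galli, L. chinensis, C. difformis, rice; greenhouse 25–30 °C.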

Veronica persica = assay: Test Example 5: herbicidal effect by foliage application, plastic box (symbol R); details: 320 g/ha, 3 weeks after application
Method in brief: as §3

Digitaria ciliaris [8] = assay: Test Example 5: herbicidal effect by foliage application, plastic box (symbol F); details: 320 g/ha, 3 weeks after application
Method in brief: as §3

corn = assay: Test Example 5: effect on crop by foliage application, plastic box (symbol c); details: 320 g/ha, 3 weeks after application
Method in brief: (§4)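 Greenhouse test at 25° C. to 30° C. Seeds of crops and weeds were spot-sown in boxes of sterilized diluvial soil under roughly 1.5 cm soil cover, then grown for foliage treatment.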

rapeseed [9] = assay: Test Example 5: effect on crop by foliage application, plastic box (symbol g); details: 320 g/ha, 3 weeks after application
Method in brief: as §4

Lolium multiflorum Lam. = assay: Test Example 4: herbicidal effect by soil treatment (symbol K)
Method in brief: as §1

wheat = assay: Test Example 5: effect on crop by foliage application, plastic box (symbol e); details: 320 g/ha, 3 weeks after application
Method in brief: as §4

Scirpus juncoides = assay: Test Example 1: herbicidal activity, application before weed generation in submerged conditions (symbol B); details: application herbicide amount 320 g/ha
Method in brief: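 Weed control was rated three weeks after treatment on a 0–5 scale, from 5% or lower up to 90% or more. Pre-emergence water-surface application of diluted emulsion at a predetermined rate was made on the day of sowing, in flooded (4 cm water) pots containing rice seedlings, kept at 25–30 °C under glass.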

rice = assay: Test Example 4: effect on crop by soil treatment (symbol b); details: for b: directly sowed rice plant, effect grade on crop: 320 g/ha
Method in brief: as §2

Chenopodium album [10] = assay: Test Example 5: herbicidal effect by foliage application, plastic box (symbol O); details: 320 g/ha, 3 weeks after application
Method in brief: as §3

[11] = application herbicide amount 320 g/ha

Row | Structure (SMILES) | H: Echinochloa crus-galli var. crus-galli, herbicidal effect grade ([1]; 320 g/ha) | g: rapeseed, effect grade on crop (rapeseed [2]) | F: Digitaria ciliaris, herbicidal effect grade (Digitaria ciliaris [3]; 320 g/ha) | I: Avena fatua, herbicidal effect (criteria 0-5) (Avena fatua [4]) | P: Stellaria media, herbicidal effect (criteria 0-5) (Stellaria media) | I: Avena fatua, herbicidal effect grade (Avena fatua [5]; 320 g/ha) | O: Chenopodium album, herbicidal effect grade (Chenopodium album [6]; 320 g/ha) | effect on crop b (directly sowed rice plant), grade 0-5 [7] | R: Veronica persica, herbicidal effect (criteria 0-5) (Veronica persica) | F: Digitaria ciliaris, herbicidal effect (criteria 0-5) (Digitaria ciliaris [8]) | c: corn, effect on crop (criteria 0-5) (corn) | g: rapeseed, effect on crop (criteria 0-5) (rapeseed [9]) | K: Lolium multiflorum Lam., herbicidal effect grade (Lolium multiflorum Lam.; 320 g/ha) | e: wheat, effect on crop (criteria 0-5) (wheat) | Herbicidal effect grade, B: Scirpus juncoides (Scirpus juncoides) | b: directly sowed rice plant, effect grade on crop (rice) | O: Chenopodium album, herbicidal effect (criteria 0-5) (Chenopodium album [10]) | I: Avena fatua, herbicidal effect grade (Avena fatua [4]) | P: Stellaria media, herbicidal effect grade (Stellaria media) | b (directly sowed rice plant) effect on crop grade [7] | also measured
1 | CON=C(C)CC1CC(OC(=O)c2nc(C)sc2C)=C(c2c(C)cc(C)cc2C)C1=O (stereo not shown) [1-101] | 5 (Herbicidal ratio of 90% or more (almost completely withered)) | 5 (Herbicidal ratio of 90% or more (almost completely withered)) | 5 (Herbicidal ratio of 90% or more (almost completely withered)) | 5 (Herbicidal ratio of 90% or more (almost completely withered)) | 3 (Herbicidal ratio of 40% or higher and lower than 70%) | 3 (Herbicidal ratio of 40% or higher and lower than 70%) | 0 (Herbicidal ratio of 5% or lower (almost no effect)) | 5 (Herbicidal ratio of 90% or more (almost completely withered)) | 3 (Herbicidal ratio of 40% or higher and lower than 70%) | 5 (Herbicidal ratio of 90% or more (almost completely withered)) | 5 (Herbicidal ratio of 90% or more (almost completely withered)) | 5 (Herbicidal ratio of 90% or more (almost completely withered)) | 5 (Herbicidal ratio of 90% or more (almost completely withered)) | 5 (Herbicidal ratio of 90% or more (almost completely withered)) | 5 (Herbicidal ratio of 90% or more (almost completely withered)) | 5 (Herbicidal ratio of 90% or more (almost completely withered)) | 3 (Herbicidal ratio of 40% or higher and lower than 70%) | – | – | – | –
2 | CCC(CC1CC(O)=C(c2c(C)cc(Br)cc2OC)C1=O)=NOC (mixture of isomers) [13-001] | – | – | – | – | – | – | – | – | – | – | – | – | – | – | – | – | – | 5 (Herbicidal ratio of 90% or more (almost completely withered)) | 0 (Herbicidal ratio of 5% or lower (almost no effect)) | 5 (Herbicidal ratio of 90% or more (almost completely withered)) | H: Echinochloa crus-galli var. crus-galli, herbicidal effect grade [1, 11]: 5 (Herbicidal ratio of 90% or more (almost completely withered)); g: rapeseed, effect on crop grade (rapeseed [2]; [11]): 0 (Herbicidal ratio of 5% or lower (almost no effect)); F: Digitaria ciliaris, herbicidal effect grade (Digitaria ciliaris [3]; [11]): 5 (Herbicidal ratio of 90% or more (almost completely withered)); I: Avena fatua, herbicidal effect grade (Avena fatua [5]; [11]): 2 (Herbicidal ratio of 20% or higher and lower than 40%); O: Chenopodium album, herbicidal effect grade (Chenopodium album [6]; [11]): 0 (Herbicidal ratio of 5% or lower (almost no effect)); R: Veronica persica, herbicidal effect grade (Veronica persica): 0 (Herbicidal ratio of 5% or lower (almost no effect)); F: Digitaria ciliaris, herbicidal effect grade (Digitaria ciliaris [8]): 5 (Herbicidal ratio of 90% or more (almost completely withered)); c: corn, effect on crop grade (corn): 5 (Herbicidal ratio of 90% or more (almost completely withered)); g: rapeseed, effect on crop grade (rapeseed [9]): 4 (Herbicidal ratio of 70% or higher and lower than 90%); K: Lolium multiflorum Lam., herbicidal effect grade (Lolium multiflorum Lam.; [11]): 5 (Herbicidal ratio of 90% or more (almost completely withered)); e: wheat, effect on crop grade (wheat): 5 (Herbicidal ratio of 90% or more (almost completely withered)); B (Scirpus juncoides) herbicidal effect grade (Scirpus juncoides): 2 (Herbicidal ratio of 20% or higher and lower than 40%); b: directly sowed rice plant, effect on crop grade (rice; [11]): 5 (Herbicidal ratio of 90% or more (almost completely withered)); O: Chenopodium album, herbicidal effect grade (Chenopodium album [10]): 0 (Herbicidal ratio of 5% or lower (almost no effect))
3 | CC(CC1CC(O)=C(c2c(C)cc(C)cc2C)C1=O)=NOCC[S+](C)[O-] (stereo not shown) [1-125] | 5 (Herbicidal ratio of 90% or more (almost completely withered)) | 0 (Herbicidal ratio of 5% or lower (almost no effect)) | 5 (Herbicidal ratio of 90% or more (almost completely withered)) | 5 (Herbicidal ratio of 90% or more (almost completely withered)) | 2 (Herbicidal ratio of 20% or higher and lower than 40%) | 3 (Herbicidal ratio of 40% or higher and lower than 70%) | 0 (Herbicidal ratio of 5% or lower (almost no effect)) | 5 (Herbicidal ratio of 90% or more (almost completely withered)) | 2 (Herbicidal ratio of 20% or higher and lower than 40%) | 5 (Herbicidal ratio of 90% or more (almost completely withered)) | 3 (Herbicidal ratio of 40% or higher and lower than 70%) | 3 (Herbicidal ratio of 40% or higher and lower than 70%) | 5 (Herbicidal ratio of 90% or more (almost completely withered)) | 5 (Herbicidal ratio of 90% or more (almost completely withered)) | 0 (Herbicidal ratio of 5% or lower (almost no effect)) | 5 (Herbicidal ratio of 90% or more (almost completely withered)) | 1 (Herbicidal ratio of 5% or higher and lower than 20%) | – | – | – | –
4 | Cc1cc(Br)cc(C)c1C1=C(O)CC(CC(=O)C2CC2)C1=O (racemic) [10-004] | – | – | – | – | – | – | – | – | – | – | – | – | – | – | – | – | – | 5 (Herbicidal ratio of 90% or more (almost completely withered)) | 0 (Herbicidal ratio of 5% or lower (almost no effect)) | 5 (Herbicidal ratio of 90% or more (almost completely withered)) | Herbicidal effect grade, H: Echinochloa crus-galli var. crus-galli [1, 11]: 5 (Herbicidal ratio of 90% or more (almost completely withered)); Effect on crop grade, g: rapeseed (rapeseed [2]; [11]): 0 (Herbicidal ratio of 5% or lower (almost no effect)); Herbicidal effect grade, F: Digitaria ciliaris (Digitaria ciliaris [3]; [11]): 5 (Herbicidal ratio of 90% or more (almost completely withered)); Herbicidal effect grade, I: Avena fatua (Avena fatua [5]; [11]): 3 (Herbicidal ratio of 40% or higher and lower than 70%); Herbicidal effect grade, O: Chenopodium album (Chenopodium album [6]; [11]): 0 (Herbicidal ratio of 5% or lower (almost no effect)); R: Veronica persica, herbicidal effect grade (Veronica persica): 3 (Herbicidal ratio of 40% or higher and lower than 70%); F: Digitaria ciliaris, herbicidal effect grade (Digitaria ciliaris [8]): 5 (Herbicidal ratio of 90% or more (almost completely withered)); c: corn, effect on crop grade (corn): 5 (Herbicidal ratio of 90% or more (almost completely withered)); g: rapeseed, effect on crop grade (rapeseed [9]): 4 (Herbicidal ratio of 70% or higher and lower than 90%); Herbicidal effect grade, K: Lolium multiflorum Lam. (Lolium multiflorum Lam.; [11]): 5 (Herbicidal ratio of 90% or more (almost completely withered)); e: wheat, effect on crop grade (wheat): 4 (Herbicidal ratio of 70% or higher and lower than 90%); B (Scirpus juncoides) herbicidal effect grade (Scirpus juncoides): 0 (Herbicidal ratio of 5% or lower (almost no effect)); Effect on crop grade, b: directly sowed rice plant (rice; [11]): 5 (Herbicidal ratio of 90% or more (almost completely withered)); O: Chenopodium album, herbicidal effect grade (Chenopodium album [10]): 0 (Herbicidal ratio of 5% or lower (almost no effect))
5 | CC(CC1CC(O)=C(c2c(C)cc(C)cc2C)C1=O)=NOCC1CC1(F)F (stereo not shown) [1-109] | 5 (Herbicidal ratio of 90% or more (almost completely withered)) | 4 (Herbicidal ratio of 70% or higher and lower than 90%) | 5 (Herbicidal ratio of 90% or more (almost completely withered)) | 5 (Herbicidal ratio of 90% or more (almost completely withered)) | 3 (Herbicidal ratio of 40% or higher and lower than 70%) | 2 (Herbicidal ratio of 20% or higher and lower than 40%) | 0 (Herbicidal ratio of 5% or lower (almost no effect)) | 5 (Herbicidal ratio of 90% or more (almost completely withered)) | 3 (Herbicidal ratio of 40% or higher and lower than 70%) | 5 (Herbicidal ratio of 90% or more (almost completely withered)) | 5 (Herbicidal ratio of 90% or more (almost completely withered)) | 4 (Herbicidal ratio of 70% or higher and lower than 90%) | 5 (Herbicidal ratio of 90% or more (almost completely withered)) | 5 (Herbicidal ratio of 90% or more (almost completely withered)) | 5 (Herbicidal ratio of 90% or more (almost completely withered)) | 5 (Herbicidal ratio of 90% or more (almost completely withered)) | 3 (Herbicidal ratio of 40% or higher and lower than 70%) | – | – | – | –

Source: US11000033B2, “Ketone or oxime compound, and herbicide” (NISSAN CHEMICAL CORPORATION, priority 2014, dated 2021)
